Measured values taken from PubChem BioAssay (NCI).
Where “and” joins values, the source holds several entries; their conditions need not be identical. Equal values may be shown once.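 Protocol summary: plate cells (96-well), add compound at 5 concentrations, incubate 48 h, interpolate endpoints linearly. The concentration for 50% growth inhibition is given as GI50. TGI denotes the concentration required for complete inhibition of growth.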

Key:
Experiment in all cases: NCI-60 cell line screen, 48 h
CAKI-1 renal = test system: CAKI-1 renal
HCC-2998 colon = test system: HCC-2998 colon
HCT-116 colon = test system: HCT-116 colon
HL-60(TB) leukemia = test system: HL-60(TB) leukemia
HOP-92 NSCLC = test system: HOP-92 NSCLC
HS 578T breast = test system: HS 578T breast
MALME-3M melanoma = test system: MALME-3M melanoma
NCI/ADR-RES ovarian = test system: NCI/ADR-RES ovarian
SR leukemia = test system: SR leukemia
SW-620 colon = test system: SW-620 colon

## CCCCCCCCn1ccc2cc(NC(=O)Cn3cc(CN4CCCCC4)nn3)ccc21
CAKI-1 renal
  GI50: 1.52 µM
  TGI: 2.99 µM
HCC-2998 colon
  GI50: 1.66 µM
  TGI: 3.28 µM
HCT-116 colon
  GI50: 1.7 µM
  TGI: 3.19 µM
HL-60(TB) leukemia
  GI50: 1.98 µM
  TGI: 4.15 µM
HOP-92 NSCLC
  GI50: 0.601 µM
  TGI: 2.21 µM
HS 578T breast
  GI50: 1.96 µM
  TGI: 4.84 µM
MALME-3M melanoma
  GI50: 1.58 µM
  TGI: 3 µM
NCI/ADR-RES ovarian
  GI50: 2.92 µM
  TGI: 10.2 µM
SR leukemia
  GI50: 1.67 µM
  TGI: > 100 µM
SW-620 colon
  GI50: 1.84 µM
  TGI: 3.59 µM

## CCN(CC)C1CCC(Nc2c(C(C)=O)cnc3ccc(-c4ccc(O)c(Cl)c4)cc23)CC1 (stereo unspecified)
CAKI-1 renal
  GI50: 0.376 µM
  TGI: 10.8 µM
HCC-2998 colon
  GI50: 1.63 µM
  TGI: 12.9 µM
HCT-116 colon
  GI50: 0.568 µM
  TGI: 4.59 µM
HL-60(TB) leukemia
  GI50: 0.15 µM
  TGI: 1.51 µM
HOP-92 NSCLC
  GI50: 0.227 µM
  TGI: 4.27 µM
HS 578T breast
  GI50: 0.157 µM
  TGI: 2.81 µM
MALME-3M melanoma
  GI50: 0.941 µM
  TGI: 16.9 µM
NCI/ADR-RES ovarian
  GI50: 0.821 µM
  TGI: 5.55 µM
SR leukemia
  GI50: 0.195 µM
  TGI: 0.72 µM
SW-620 colon
  GI50: 0.933 µM
  TGI: 4.38 µM

## COc1ccc(C2C=C(c3ccc4c(c3)OCO4)Oc3c2c(=O)oc2ccccc32)cc1OC (stereo unspecified)
CAKI-1 renal
  TGI: > 100 µM
HCC-2998 colon
  TGI: 2.26 µM
HCT-116 colon
  TGI: > 100 µM
HL-60(TB) leukemia
  TGI: 0.6 µM
HOP-92 NSCLC
  TGI: > 73.1 µM
HS 578T breast
  TGI: > 100 µM
MALME-3M melanoma
  TGI: > 100 µM
NCI/ADR-RES ovarian
  TGI: > 100 µM
SR leukemia
  TGI: 0.594 µM
SW-620 colon
  TGI: > 100 µM

## Cc1ccc(Cl)c(Nc2ccccc2C(=O)O)c1Cl
CAKI-1 renal
  GI50: 34.6 µM
  TGI: > 100 µM
HCC-2998 colon
  GI50: 26.6 µM
  TGI: 66.4 µM
HCT-116 colon
  GI50: 19.6 µM
  TGI: 44.9 µM
HL-60(TB) leukemia
  GI50: 22.7 µM
  TGI: 51.4 µM
HOP-92 NSCLC
  GI50: 16.2 µM
  TGI: 50 µM
HS 578T breast
  GI50: 25.7 µM
  TGI: > 100 µM
MALME-3M melanoma
  GI50: 23.1 µM
  TGI: 63.4 µM
NCI/ADR-RES ovarian
  GI50: 26.3 µM
  TGI: 80.9 µM
SR leukemia
  GI50: 25.4 µM
  TGI: 78.1 µM
SW-620 colon
  GI50: 34.4 µM
  TGI: > 100 µM

## Oc1cc2ccccc2c(-c2c(O)c(O)cc3ccccc23)c1O
CAKI-1 renal
  GI50: 0.852 µM
  TGI: 6.55 µM
HCC-2998 colon
  GI50: 0.506 µM
  TGI: 2.61 µM
HCT-116 colon
  GI50: 0.427 µM
  TGI: 11.9 µM
HL-60(TB) leukemia
  GI50: 1.59 µM
  TGI: > 20.6 µM
HOP-92 NSCLC
  GI50: 1.87 µM
  TGI: 16.3 µM
HS 578T breast
  GI50: 2.9 µM
  TGI: > 44.1 µM
MALME-3M melanoma
  GI50: 3.85 µM
  TGI: 21.4 µM
NCI/ADR-RES ovarian
  GI50: 1.83 µM
  TGI: 12.4 µM
SR leukemia
  GI50: 0.912 µM
  TGI: > 100 µM
SW-620 colon
  GI50: 3.49 µM
  TGI: 26.9 µM

## COc1cc(C(=O)N/N=C/c2ccc(N(C)C)cc2)cc(OC)c1OC
CAKI-1 renal
  GI50: 3.7 µM
  TGI: > 100 µM
HCC-2998 colon
  GI50: 0.551 µM
  TGI: 19.1 µM
HCT-116 colon
  GI50: 0.392 µM
  TGI: > 100 µM
HL-60(TB) leukemia
  GI50: 0.303 µM
HOP-92 NSCLC
  GI50: 0.143 µM
  TGI: 2.28 µM
HS 578T breast
  GI50: 0.546 µM
  TGI: > 100 µM
MALME-3M melanoma
  GI50: 0.582 µM
  TGI: > 100 µM
NCI/ADR-RES ovarian
  GI50: 0.337 µM
  TGI: 1.6 µM
SR leukemia
  GI50: 0.287 µM
SW-620 colon
  GI50: 0.424 µM
  TGI: > 100 µM

## COc1ccc(C2C(C)C(=O)C(C)C(c3ccc(OC)cc3)N2N=O)cc1 (stereo unspecified)
CAKI-1 renal
  GI50: 50.1 µM
  TGI: 750 µM and 577 µM
HCC-2998 colon
  GI50: > 1000 µM
  TGI: > 1000 µM
HCT-116 colon
  TGI: 455 µM
HL-60(TB) leukemia
  GI50: > 750 µM
  TGI: > 1000 µM
HOP-92 NSCLC
  GI50: > 47.9 µM
  TGI: > 80.9 µM and 190 µM and 149 µM
HS 578T breast
  TGI: 890 µM
MALME-3M melanoma
  TGI: > 700 µM
NCI/ADR-RES ovarian
  TGI: > 1000 µM
SR leukemia
  TGI: > 1000 µM
SW-620 colon
  GI50: > 750 µM
  TGI: > 1000 µM

## O=C1c2cccc(NCCN=Cc3ccccc3O)c2C(=O)c2c(NCCN=Cc3ccccc3O)cccc21
CAKI-1 renal
  GI50: 0.953 µM
  TGI: 4.82 µM
HCC-2998 colon
  GI50: 0.535 µM
  TGI: 1.72 µM
HCT-116 colon
  GI50: 0.387 µM
HL-60(TB) leukemia
  GI50: 1.09 µM
  TGI: 3.4 µM
HOP-92 NSCLC
  GI50: 0.584 µM
  TGI: 2.49 µM
HS 578T breast
  GI50: 0.838 µM
  TGI: 3.98 µM
MALME-3M melanoma
  GI50: 1.01 µM
  TGI: 2.86 µM
NCI/ADR-RES ovarian
  GI50: 11.5 µM
  TGI: 97.1 µM
SR leukemia
  GI50: 0.363 µM
SW-620 colon
  GI50: 0.258 µM
  TGI: 1.38 µM

## COc1ccc(/C=C/C(=O)c2ccc(OC)c(OC)c2)cc1O
CAKI-1 renal
  GI50: 18.1 µM
  TGI: > 100 µM
HCC-2998 colon
  GI50: 9.1 µM
  TGI: 22.1 µM
HCT-116 colon
  GI50: 3.35 µM
  TGI: 12.8 µM
HL-60(TB) leukemia
  GI50: 13.9 µM
  TGI: 52.2 µM
HOP-92 NSCLC
  GI50: 2.02 µM
  TGI: 13.6 µM
HS 578T breast
  GI50: 11 µM
  TGI: 90.9 µM
MALME-3M melanoma
  GI50: 15.8 µM
  TGI: 31.7 µM
NCI/ADR-RES ovarian
  GI50: 3.88 µM
  TGI: 49.1 µM
SR leukemia
  GI50: 0.393 µM
  TGI: > 100 µM
SW-620 colon
  GI50: 3.09 µM
  TGI: 12.8 µM

## OCc1ccc(N2CCc3ccccc3C2)cc1Cl
CAKI-1 renal
  GI50: 0.568 µM
  TGI: 14.1 µM
HCC-2998 colon
  GI50: 1.15 µM
  TGI: 7.11 µM
HCT-116 colon
  GI50: < 0.01 µM
  TGI: 14.1 µM
HL-60(TB) leukemia
  GI50: 17.9 µM
  TGI: 61.4 µM
HOP-92 NSCLC
  GI50: 0.0448 µM
  TGI: 9.28 µM
HS 578T breast
  GI50: 32.6 µM
  TGI: > 89.8 µM
MALME-3M melanoma
  GI50: 20.3 µM
  TGI: 56.6 µM
NCI/ADR-RES ovarian
  GI50: 5.13 µM
  TGI: 39.8 µM
SR leukemia
  GI50: 21.9 µM
  TGI: > 76.4 µM
SW-620 colon
  GI50: < 0.0218 µM
  TGI: > 100 µM

## O=C(Nc1ccc(/C=C/c2ccc(NC(=O)c3cc(S(=O)(=O)O)c4cccnc4c3O)cc2S(=O)(=O)O)c(S(=O)(=O)O)c1)c1cc(S(=O)(=O)O)c2cccnc2c1O
CAKI-1 renal
  GI50: 34.3 µM
  TGI: > 75.2 µM
HCC-2998 colon
  GI50: 97.6 µM
  TGI: > 100 µM
HCT-116 colon
  GI50: 4.54 µM
  TGI: > 43.3 µM
HL-60(TB) leukemia
  GI50: 0.337 µM
  TGI: 3.2 µM
HOP-92 NSCLC
  GI50: 28.5 µM
  TGI: 89.4 µM
HS 578T breast
  GI50: > 53.1 µM
  TGI: > 74.8 µM
MALME-3M melanoma
  GI50: 34.4 µM
  TGI: > 62.6 µM
NCI/ADR-RES ovarian
  GI50: > 56.2 µM
  TGI: > 100 µM
SR leukemia
  GI50: 0.0205 µM
  TGI: 0.17 µM
SW-620 colon
  GI50: 17.8 µM
  TGI: > 83.8 µM

## NC(N)=N/N=C/c1ccc(-c2ccc(-c3cc(Cl)cc(Cl)c3)s2)cc1
CAKI-1 renal
  GI50: 1.58 µM
  TGI: 3.31 µM
HCC-2998 colon
  GI50: 1.94 µM
  TGI: 3.83 µM
HCT-116 colon
  GI50: 1.31 µM
  TGI: 2.99 µM
HL-60(TB) leukemia
  GI50: 1.68 µM
  TGI: 3.59 µM
HOP-92 NSCLC
  GI50: 1.41 µM
  TGI: 3.13 µM
HS 578T breast
  GI50: 1.78 µM
  TGI: 4.05 µM
MALME-3M melanoma
  GI50: 1.72 µM
  TGI: 3.42 µM
NCI/ADR-RES ovarian
  GI50: 2 µM
  TGI: 4.33 µM
SR leukemia
  GI50: 0.326 µM
  TGI: 1.73 µM
SW-620 colon
  GI50: 1.66 µM
  TGI: 3.34 µM

## O=c1ssc(Cl)c1Cl
CAKI-1 renal
  TGI: > 10 µM
HCC-2998 colon
  TGI: > 10 µM
HCT-116 colon
  TGI: > 10 µM
HL-60(TB) leukemia
  TGI: 6.04 µM
HOP-92 NSCLC
  TGI: > 10 µM
HS 578T breast
  TGI: > 10 µM
MALME-3M melanoma
  TGI: 9.77 µM
NCI/ADR-RES ovarian
  TGI: > 10 µM
SR leukemia
  TGI: > 10 µM
SW-620 colon
  TGI: > 8.11 µM
